Measured values from patent publication US20250311727A1, “SUBSTITUTED 2-AMINOAZINES AND SALTS THEREOF, AND USE THEREOF AS HERBICIDAL ACTIVE SUBSTANCES” (BAYER AKTIENGESELLSCHAFT, priority 2022, published 2025).

Tests used:
Type in all cases: in vivo
Amaranthus retroflexus [1] = experiment: Post-emergence herbicidal efficacy at 80 g/ha, AMARE; conditions: rated visually after about 3 weeks vs untreated controls, 100% = plants have died
Excerpt: (§1) Unwanted plants/weeds: • ABUTH: Abutilon theophrasti • ALOMY: Alopecurus myosuroides • AMARE: Amaranthus retroflexus • DIGSA: Digitaria sanguinalis • ECHCG: Echinochloa crus-galli • KCHSC: Kochia scoparia • LOLRI: Lolium rigidum • MATIN: Matricaria inodora • POAAN: Poa annua • POLCO: Polygonum convolvulus • SETVI: Setaria viridis • STEME: Stellaria media • VERPE: Veronica persica • VIOTR: Viola tricolor A. Post-Emergence Herbicidal Efficacy at 320 g/ha
(§2) Seeds of monocotyledonous and dicotyledonous weeds and crop plants were placed in sandy loam in plastic or organic planting pots, covered with soil and cultivated in a greenhouse under controlled growth conditions. 2 to 3 weeks after sowing, the test plants were treated at the one-leaf stage. The compounds of the invention, formulated in the form of wettable powders (WP) or as emulsion concentrates (EC), were then sprayed onto the green parts of the plants as aqueous suspension or emulsion with addition of 0.5% additive at a water application rate of 600 l/ha (converted). After the test plants had been kept in the greenhouse under optimum growth conditions for about 3 weeks, the activity of the preparations was rated visually in comparison to untreated controls. For example, 100% activity=the plants have died, 0% activity=like control plants.
(§3) Tables B1 to B11 below show the effects of selected compounds of the general formula (I) according to Table 1 on various harmful plants and an application rate corresponding to 80 g/ha, which were obtained by the experimental procedure mentioned above.

Kochia scoparia [2] = experiment: Post-emergence herbicidal efficacy at 80 g/ha, KCHSC; conditions: rated visually after about 3 weeks vs untreated controls, 100% = plants have died
Excerpt: as §1, §2, §3

Veronica persica [3] = experiment: Post-emergence herbicidal efficacy at 80 g/ha, VERPE; conditions: rated visually after about 3 weeks vs untreated controls, 100% = plants have died
Excerpt: as §1, §2, §3

Amaranthus retroflexus [4] = experiment: Pre-emergence herbicide efficacy at 80 g/ha, AMARE; conditions: scored visually after about 3 weeks vs untreated controls, 100% = plants have died
Excerpt: as §1
(§4) Seeds of monocotyledonous and dicotyledonous weed plants and crop plants were placed in plastic or organic planting pots and covered with soil. The compounds of the invention, formulated in the form of wettable powders (WP) or as emulsion concentrates (EC), were then applied to the surface of the covering soil as aqueous suspension or emulsion with addition of 0.5% additive at a water application rate equivalent to 600 l/ha. After the treatment, the pots were placed in a greenhouse and kept under good growth conditions for the test plants. After about 3 weeks, the efficacy of the preparations was scored visually in comparison with untreated controls as percentages. For example, 100% activity=the plants have died, 0% activity=like control plants.
(§5) Tables D1 to D12 below show the effects of selected compounds of the general formula (I) according to Table 1 on various harmful plants and an application rate corresponding to 80 g/ha, which were obtained by the experimental procedure mentioned above.

Digitaria sanguinalis [5] = experiment: Pre-emergence herbicide efficacy at 80 g/ha, DIGSA; conditions: scored visually after about 3 weeks vs untreated controls, 100% = plants have died
Excerpt: as §1, §4, §5

Kochia scoparia [6] = experiment: Pre-emergence herbicide efficacy at 80 g/ha, KCHSC; conditions: scored visually after about 3 weeks vs untreated controls, 100% = plants have died
Excerpt: as §1, §4, §5

Abutilon theophrasti = experiment: Post-emergence herbicidal efficacy at 320 g/ha, ABUTH; conditions: rated visually after about 3 weeks vs untreated controls, 100% = plants have died
Procedure, shortened: (§6)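 Visual % activity vs untreated controls, ~3 wk after spraying; 100% = plants dead, 0% = like control. Greenhouse pot plants in sandy loam, treated at one-leaf stage (2–3 wk post-sowing). WP/EC in water + 0.5% additive, 600 L/ha spray volume.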

Amaranthus retroflexus [7] = experiment: Post-emergence herbicidal efficacy at 320 g/ha, AMARE; conditions: rated visually after about 3 weeks vs untreated controls, 100% = plants have died
Procedure, shortened: as §6

Digitaria sanguinalis [8] = experiment: Post-emergence herbicidal efficacy at 320 g/ha, DIGSA; conditions: rated visually after about 3 weeks vs untreated controls, 100% = plants have died
Excerpt: as §1
(§7) Seeds of mono- and dicotyledonous weed plants were placed in plastic pots in sandy loam soil (doubly sown with in each case one species of mono- or dicotyledonous weed plants per pot), covered with soil and cultivated in a greenhouse under controlled growth conditions. 2 to 3 weeks after sowing, the test plants were treated at the one-leaf stage. The compounds of the invention, formulated in the form of wettable powders (WP) or as emulsion concentrates (EC), were applied to the green parts of the plants as aqueous suspension or emulsion with addition of 0.5% additive at a water application rate equivalent to 600 litres per hectare. After the test plants had been kept in the greenhouse under optimum growth conditions for about 3 weeks, the activity of the preparations was rated visually in comparison to untreated controls.
(§8) For example, 100% activity=the plants have died, 0% activity=like control plants.
(§9) Tables A1 to A10 below show the effects of selected compounds of the general formula (I) according to Table 1 on various harmful plants and at an application rate corresponding to 320 g/ha, which were obtained by the trial procedure specified above.

Echinochloa crus-galli [9] = experiment: Post-emergence herbicidal efficacy at 320 g/ha, ECHCG; conditions: rated visually after about 3 weeks vs untreated controls, 100% = plants have died
Excerpt: as §1, §7, §8, §9

Setaria viridis [10] = experiment: Post-emergence herbicidal efficacy at 320 g/ha, SETVI; conditions: rated visually after about 3 weeks vs untreated controls, 100% = plants have died
Excerpt: as §1, §7, §8, §9

Stellaria media [11] = experiment: Post-emergence herbicidal efficacy at 320 g/ha, STEME; conditions: rated visually after about 3 weeks vs untreated controls, 100% = plants have died
Procedure, shortened: as §6

Veronica persica [12] = experiment: Post-emergence herbicidal efficacy at 320 g/ha, VERPE; conditions: rated visually after about 3 weeks vs untreated controls, 100% = plants have died
Procedure, shortened: as §6

Amaranthus retroflexus [13] = experiment: Pre-emergence herbicide efficacy at 320 g/ha, AMARE; conditions: scored visually after about 3 weeks vs untreated controls, 100% = plants have died
Procedure, shortened: (§10)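 Pre-emergence soil-surface spray of WP or EC formulation in water at 600 L/ha with 0.5% additive, over seeds covered in sandy loam. Scoring visual, ~3 weeks, % of untreated.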

Digitaria sanguinalis [14] = experiment: Pre-emergence herbicide efficacy at 320 g/ha, DIGSA; conditions: scored visually after about 3 weeks vs untreated controls, 100% = plants have died
Procedure, shortened: as §10

Echinochloa crus-galli [15] = experiment: Pre-emergence herbicide efficacy at 320 g/ha, ECHCG; conditions: scored visually after about 3 weeks vs untreated controls, 100% = plants have died
Excerpt: as §1
(§11) Seeds of mono- and dicotyledonous weed plants were placed in plastic pots in sandy loam soil (doubly sown with one species each of mono- or dicotyledonous weed plants per pot) and covered with soil. The compounds of the invention, formulated in the form of wettable powders (WP) or as emulsion concentrates (EC), were then applied to the surface of the covering soil as aqueous suspension or emulsion with addition of 0.5% additive at a water application rate of 600 litres per hectare (converted). After the treatment, the pots were placed in a greenhouse and kept under good growth conditions for the test plants. After about 3 weeks, the efficacy of the preparations was scored visually in comparison with untreated controls as percentages.
as §8
(§12) Tables C1 to C12 below show the effects of selected compounds of the general formula (I) according to Table 1 on various harmful plants and at an application rate corresponding to 320 g/ha, which were obtained by the trial procedure specified above.

Poa annua = experiment: Pre-emergence herbicide efficacy at 320 g/ha, POAAN; conditions: scored visually after about 3 weeks vs untreated controls, 100% = plants have died
Excerpt: as §1, §11, §8, §12

Setaria viridis [16] = experiment: Pre-emergence herbicide efficacy at 320 g/ha, SETVI; conditions: scored visually after about 3 weeks vs untreated controls, 100% = plants have died
Procedure, shortened: as §10

Stellaria media [17] = experiment: Pre-emergence herbicide efficacy at 320 g/ha, STEME; conditions: scored visually after about 3 weeks vs untreated controls, 100% = plants have died
Procedure, shortened: as §10

Veronica persica [18] = experiment: Pre-emergence herbicide efficacy at 320 g/ha, VERPE; conditions: scored visually after about 3 weeks vs untreated controls, 100% = plants have died
Procedure, shortened: as §10

Row | Structure (SMILES) | Post-emergence efficacy at 80 g/ha against AMARE in % (Amaranthus retroflexus [1]) [%] | Post-emergence efficacy at 80 g/ha against KCHSC in % (Kochia scoparia [2]) [%] | Post-emergence efficacy at 80 g/ha against VERPE in % (Veronica persica [3]) [%] | Pre-emergence efficacy at 80 g/ha against AMARE in % (Amaranthus retroflexus [4]) [%] | Pre-emergence efficacy at 80 g/ha against DIGSA in % (Digitaria sanguinalis [5]) [%] | Pre-emergence efficacy at 80 g/ha against KCHSC in % (Kochia scoparia [6]) [%] | Post-emergence efficacy at 320 g/ha against ABUTH in % (Abutilon theophrasti) [%] | Post-emergence efficacy at 320 g/ha against AMARE in % (Amaranthus retroflexus [7]) [%] | Post-emergence efficacy at 320 g/ha against DIGSA in % (Digitaria sanguinalis [8]) [%] | Post-emergence efficacy at 320 g/ha against ECHCG in % (Echinochloa crus-galli [9]) [%] | Post-emergence efficacy at 320 g/ha against SETVI in % (Setaria viridis [10]) [%] | Post-emergence efficacy at 320 g/ha against STEME in % (Stellaria media [11]) [%] | Post-emergence efficacy at 320 g/ha against VERPE in % (Veronica persica [12]) [%] | Pre-emergence efficacy at 320 g/ha against AMARE in % (Amaranthus retroflexus [13]) [%] | Pre-emergence efficacy at 320 g/ha against DIGSA in % (Digitaria sanguinalis [14]) [%] | Pre-emergence efficacy at 320 g/ha against ECHCG in % (Echinochloa crus-galli [15]) [%] | Pre-emergence efficacy at 320 g/ha against POAAN in % (Poa annua) [%] | Pre-emergence efficacy at 320 g/ha against SETVI in % (Setaria viridis [16]) [%] | Pre-emergence efficacy at 320 g/ha against STEME in % (Stellaria media [17]) [%] | Pre-emergence efficacy at 320 g/ha against VERPE in % (Veronica persica [18]) [%]
1 | Clc1cnc(Cc2ccccc2Nc2ncc(Cl)cn2)nc1 [Example 1-51] | 100 | 100 | 80 | 100 | 80 | 100 |  |  |  |  |  |  |  |  |  |  |  |  |  | 
2 | Fc1cccc(Nc2ncc(Cl)cn2)c1-n1cc(C(F)(F)F)cn1 [Example 1-47] |  |  |  |  |  |  | 90 | 90 | 90 | 90 | 90 | 90 | 90 | 100 | 90 | 100 | 100 | 100 | 90 | 100
